In brackets after ≈: the same amount, converted by molar mass.

In one data set the test system is Klebsiella pneumoniae. As to the kind of experiment: In vitro Minimum inhibitory concentration against Klebsiella pneumoniae 8045. Type of data set: functional.
Data set [1] has as its system Acinetobacter. Kind of data set: In vitro Minimum inhibitory concentration against Acinetobacter CMX 669. It is filed as functional.
The subject of another data set is Escherichia coli. Kind of data set: In vitro Minimum inhibitory concentration against Escherichia coli Juhl. Type of data set: functional.
Another data set deals with Streptococcus agalactiae. Kind of data set: In vitro Minimum inhibitory concentration against Streptococcus agalactiae CMX 508. It is filed as functional.
Data set [2] concerns Staphylococcus aureus. Kind of data set: In vitro Minimum inhibitory concentration against Staphylococcus aureus 45. Type of data set: functional.
For data set [3], the system named is Pseudomonas aeruginosa. As to the kind of experiment: In vitro Minimum inhibitory concentration against Pseudomonas aeruginosa 5007. Type of data set: functional.
The next data set concerns Streptococcus pyogenes. Kind of data set: In vitro Minimum inhibitory concentration against Streptococcus pyogenes 930. It is filed as functional.
The subject of data set [4] is Staphylococcus epidermidis. As to the kind of experiment: In vitro Minimum inhibitory concentration against Staphylococcus epidermidis 3519. Type of data set: functional.
The subject of another data set is Enterococcus faecium. Kind of data set: In vitro Minimum inhibitory concentration against Streptococcus faecium ATCC 8043. It is filed as functional.
In another data set the test system is Streptococcus equinus. As to the kind of experiment: In vitro Minimum inhibitory concentration against Streptococcus bovis A5169. It is filed as functional.
Data set [5] has as its system Acinetobacter. As to the kind of experiment: In vitro Minimum inhibitory concentration against Acinetobacter CMX 669.
Data set [6] can be described thus: Blood level was evaluated by a disk agar diffusion assay at 3.0 hh when administered at a peroral dose of 100 mg/kg. It is filed as ADME, organism-based. Further details: dose 100 mg/kg, route oral. The conditions noted are these: mouse, po, read-out: Blood level. A general note: Agar diffusion results depend on both activity and mobility in agar.
Data set [7] has as its system Staphylococcus aureus. Kind of data set: In vitro Minimum inhibitory concentration against Staphylococcus aureus A5177. It is filed as functional.
The subject of data set [8] is Staphylococcus aureus. As to the kind of experiment: In vitro Minimum inhibitory concentration against Staphylococcus aureus ATCC 6538P. Type of data set: functional.
For data set [9], the system named is Staphylococcus aureus. As to the kind of experiment: In vitro Minimum inhibitory concentration against Staphylococcus aureus CMX 686B. It is filed as functional.
The test system of data set [10] is Mus musculus. Kind of data set: (§1) In vivo efficacy against Staphylococcus aureus 10649, in mouse protection tests when administered perorally (po). It is filed as functional.
Data set [11] can be described thus: Blood level was evaluated by a disk agar diffusion assay at 3.0 hh when administered at a peroral dose of 25 mg/kg. It is filed as ADME, organism-based. On the set-up: dose 25 mg/kg, route oral. The conditions noted are these: mouse, po, read-out: Blood level.
A short description of data set [12]: Blood level was evaluated by a disk agar diffusion assay at 1.0 hr when administered at a peroral dose of 25 mg/kg. Type of data set: ADME, organism-based. Further details: dose 25 mg/kg, route oral. The conditions noted are these: mouse, po, read-out: Blood level.
Data set [13] is described as follows: Blood level was evaluated by a disk agar diffusion assay at 0.5 hr when administered at a peroral dose of 25 mg/kg. Type of data set: ADME, organism-based. On the set-up: dose 25 mg/kg, route oral. The conditions noted are these: mouse, po, read-out: Blood level.
Data set [14] has as its system Mus musculus. As to the kind of experiment: (§2) In vivo efficacy against Staphylococcus aureus 10649, in mouse protection tests when administered subcutaneously (sc). It is filed as functional.
The test system of data set [15] is Pseudomonas aeruginosa. Kind of data set: In vitro Minimum inhibitory concentration against Pseudomonas aeruginosa K799/WT. It is filed as functional.
Data set [16] is described as follows: Blood level was evaluated by a disk agar diffusion assay at 2.0 hr when administered at a peroral dose of 25 mg/kg. The conditions noted are these: mouse, po, read-out: Blood level. On the set-up: dose 25 mg/kg, route oral. Type of data set: ADME, organism-based.
Data set [17] deals with Mus musculus. Kind of data set: In vivo efficacy against Escherichia coli Juhl, in mouse protection tests when administered subcutaneously (sc). Type of data set: functional.
For data set [18], the system named is Mus musculus. As to the kind of experiment: In vivo efficacy against Escherichia coli Juhl, in mouse protection tests when administered perorally (po). It is filed as functional.
Data set [19] is described as follows: Blood level was evaluated by a disk agar diffusion assay at 24.0 hr when administered at a peroral dose of 25 mg/kg. On the set-up: dose 25 mg/kg, route oral. The conditions noted are these: mouse, po, read-out: Blood level. Type of data set: ADME, organism-based.
Data set [20] concerns Staphylococcus aureus. The data set is described as §1. Type of data set: functional.
Data set [21] relates to Staphylococcus aureus. Described as §2. Type of data set: functional.
Data set [22] is described as follows: Blood level was evaluated by a disk agar diffusion assay at 6.0 hr when administered at a peroral dose of 25 mg/kg. Type of data set: ADME, organism-based. Further details: dose 25 mg/kg, route oral. The conditions noted are these: mouse, po, read-out: Blood level.

`NC1CCN(c2cc3c(cc2F)c(=O)c(C(=O)O)cn3-c2ccc(F)cc2F)C1` (configuration not stated): the MIC stood at 0.05 µg/mL (≈ 0.124 µM) against Klebsiella pneumoniae; 0.1 µg/mL (≈ 0.248 µM) in the data set with Acinetobacter [1]; 0.1 µg/mL (≈ 0.248 µM) in the data set with Acinetobacter [1] (Acinetobacter, read-out: MIC); 0.05 µg/mL (≈ 0.124 µM) in the data set with Escherichia coli; 0.2 µg/mL (≈ 0.496 µM) against Streptococcus agalactiae; 0.1 µg/mL (≈ 0.248 µM) against Staphylococcus aureus [2]. For the same molecule, the MIC is 1.56 µg/mL (≈ 3.87 µM) in the data set on Pseudomonas aeruginosa [3]; 0.2 µg/mL (≈ 0.496 µM) in the data set with Streptococcus pyogenes; 0.1 µg/mL (≈ 0.248 µM) in data set [4]; 0.2 µg/mL (≈ 0.496 µM) in the data set on Enterococcus faecium; 0.78 µg/mL (≈ 1.93 µM) in the data set on Streptococcus equinus; 0.1 µg/mL (≈ 0.248 µM) in the data set with Acinetobacter [5]. For the same molecule, the MIC worked out at 0.1 µg/mL (≈ 0.248 µM) in the data set with Staphylococcus aureus [7], 0.05 µg/mL (≈ 0.124 µM) in the data set on Staphylococcus aureus [8] and 0.05 µg/mL (≈ 0.124 µM) against Staphylococcus aureus [9]. Besides, the concentration at 3 h in data set [6] came out at 900 ng/mL.
Turning to `C[C@H]1C[C@H](N)CN1c1cc2c(cc1F)c(=O)c(C(=O)O)cn2-c1ccc(F)cc1`, the minimal inhibitory concentration (MIC) against Klebsiella pneumoniae was 0.01 µg/mL (≈ 0.025 µM); in the data set on Acinetobacter [1] (Acinetobacter, read-out: MIC), 0.1 µg/mL (≈ 0.25 µM); with Escherichia coli it was 0.02 µg/mL (≈ 0.0501 µM); in the data set with Streptococcus agalactiae it was 0.2 µg/mL (≈ 0.501 µM); in the data set with Staphylococcus aureus [2] it was 0.05 µg/mL (≈ 0.125 µM); against Pseudomonas aeruginosa [3], 3.1 µg/mL (≈ 7.76 µM). In addition, the MIC against Streptococcus pyogenes was 0.2 µg/mL (≈ 0.501 µM); in data set [4] it was 0.05 µg/mL (≈ 0.125 µM); with Enterococcus faecium it was 0.2 µg/mL (≈ 0.501 µM); in the data set with Streptococcus equinus, 0.2 µg/mL (≈ 0.501 µM); against Staphylococcus aureus [7], 0.05 µg/mL (≈ 0.125 µM); against Pseudomonas aeruginosa [15], 0.78 µg/mL (≈ 1.95 µM). The MIC against Staphylococcus aureus [8] and in the data set on Staphylococcus aureus [9] was 0.05 µg/mL (≈ 0.125 µM) in each case. Further, the 50% effective dose (ED50) was determined as 4.4 mg/kg in the data set with Mus musculus [10] and 0.8 mg/kg with Mus musculus [14]. Also, the concentration at 3 h in data set [11] stood at 200 ng/mL. Also, the concentration at 1 h in [12] is 800 ng/mL. Moreover, in data set [13], the concentration at 0.5 h was found to be 1000 ng/mL. Further, the concentration at 2 h in [16] came out at 400 ng/mL.
Regarding `NC1CCN(c2cc3c(cc2F)c(=O)c(C(=O)O)cn3-c2ccc(F)cc2)C1` (configuration not stated), the median effective dose (ED50) in the data set with Mus musculus [10] came out at 6.2 mg/kg; with Mus musculus [14] it was 0.8 mg/kg; in the data set on Mus musculus [17], 1 mg/kg; with Mus musculus [18], 5.8 mg/kg.
On to `C[C@H]1C[C@H](N)CN1c1nc2c(cc1F)c(=O)c(C(=O)O)cn2-c1ccc(F)cc1`, for which the MIC was 0.05 µg/mL (≈ 0.125 µM) against Klebsiella pneumoniae; 0.1 µg/mL (≈ 0.25 µM) in the data set with Acinetobacter [1] (Acinetobacter, read-out: MIC); 0.05 µg/mL (≈ 0.125 µM) with Escherichia coli; 0.78 µg/mL (≈ 1.95 µM) in the data set with Streptococcus agalactiae; 0.1 µg/mL (≈ 0.25 µM) against Staphylococcus aureus [2]; 0.39 µg/mL (≈ 0.974 µM) in the data set on Pseudomonas aeruginosa [3]. Moreover, the minimal inhibitory concentration (MIC) against Streptococcus pyogenes came out at 0.39 µg/mL (≈ 0.974 µM); in data set [4], 0.1 µg/mL (≈ 0.25 µM); against Enterococcus faecium, 0.39 µg/mL (≈ 0.974 µM); against Streptococcus equinus it was 0.78 µg/mL (≈ 1.95 µM); against Staphylococcus aureus [7], 0.1 µg/mL (≈ 0.25 µM); against Pseudomonas aeruginosa [15] it was 0.39 µg/mL (≈ 0.974 µM). Besides, the MIC in the data set on Staphylococcus aureus [8] and in the data set with Staphylococcus aureus [9] was 0.05 µg/mL (≈ 0.125 µM) each time. Moreover, the concentration at 24 h in data set [19] came out at 100 ng/mL. Besides, the 50% effective dose (ED50) in the data set with Staphylococcus aureus [20] turned out to be 5.7 mg/kg; with Staphylococcus aureus [21], 2 mg/kg. The concentration at 3 h in data set [11] came to 800 ng/mL. Besides, in data set [12], the concentration at 1 h came to 1900 ng/mL. Further, the concentration at 0.5 h in data set [13] amounted to 2400 ng/mL. Further, the concentration at 2 h in [16] turned out to be 1500 ng/mL. For the same molecule, the concentration at 6 h in [22] stood at 300 ng/mL.

Usually MIC stands for the lowest concentration found to suppress growth. What is called ED50 is the dose at which the effect has come halfway, by size or by number of responders. A high value points to weaker potency.

Source of the values: ChEMBL document CHEMBL1124182, “Design, synthesis, and properties of (4S)-7-(4-amino-2-substituted-pyrrolidin-1-yl)quinolone-3-carboxylic acids” (J Med Chem, 1988).
